{
  "source": "paper PMC9669016",
  "about": "“First-in-human phase Ia study of the PI3Kα inhibitor CYH33 in patients with solid tumors” (Nature Communications, 2022)",
  "key": {"[1]": {"test_system": "fasting blood glucose (FBG)", "experiment": "Pharmacodynamics: fasting blood glucose (FBG) change from baseline", "format": "in vivo, human", "details": "Cycle 1 Day 15 (C1D15), starting at 10 mg CYH33 and peaking at 60 mg", "from_the_text": "Since glucose metabolism is tightly regulated by PI3Kα[24], fasting blood glucose (FBG) levels were used as a PD marker.\nThis is a phase I clinical study (ClinicalTrials.gov identifier: NCT03544905), including a phase Ia study of oral CYH33 monotherapy in patients with advanced solid tumors, and a phase Ib study of oral CYH33 monotherapy focused on several specific tumors. Here we report the results of the phase Ia study conducted at Sun Yat-sen University Cancer Center. The phase Ia study included dose-escalation stage and dose-expansion stage. […]\nBlood samples for PK evaluation were collected at: (1) during the single dose phase: on day 1 pre-dose and 0.5, 1, 2, 4, 8, 12, 24, 36, 48, and 72 h post-dose; (2) during the continuous dose phase: C1D1/Cycle 1 Day 28 pre-dose, and 0.5, 1, 2, 3, 4, 6, 8, 12, and 24 h post-dose; and C1D8/Day 15 pre-dose. Plasma concentrations of CYH33 and I27 were analyzed using a liquid chromatography-tandem mass spectrometry (LC/MS/MS) assay (Shimadzu Corporation, LC-30AD) with a lower limit of quantification (LLOQ) of 2.585 ng/mL and 1.0 ng/mL for CYH33 and I27, respectively. […]"}, "[2]": {"set-up": "method as in Investigator's Brochure (IB) 12", "details": "ref Investigator's Brochure (IB) 12, cited from earlier work"}},
  "data": [
    {"smiles": "COC(=O)Nc1cc(C(F)(F)F)c(-c2nc(N3CCOCC3)c3cc(CN4CCN(S(C)(=O)=O)CC4)cn3n2)cn1", "note": "[CYH33, methyl (5-(6-((4-(methylsulfonyl)piperazin-1-yl)methyl)−4-morpholinopyrrolo[2,1-f][1,2,4]triazin-2-yl)−4-(trifluoromethyl)pyridin-2-yl)carbamate]", "values": [
      {"measurement": "FBG levels", "setting": "[1]", "value": "dose-dependent increase in FBG levels"},
      {"measurement": "exposure in tissues relative to plasma", "setting": "[2]; liver, adrenal gland, digestive tract, pancreas, kidney, spleen, ovaries", "value": "more than 4 times"},
      {"measurement": "concentration of parent drug at 72 h after administration relative to peak concentration", "setting": "[2]", "value": 0.5, "unit": "%"},
      {"measurement": "distribution into the red blood cells", "setting": "[2]", "value": "basically not distributed"},
      {"measurement": "exposure in brain tissue relative to plasma", "setting": "[2]", "value": "approximately 20%"},
      {"measurement": "exposure in tissues, female rats relative to male rats (higher)", "setting": "[2]", "value": "7 - 18 fold"}
    ]}
  ]
}
